Data reported in PubChem BioAssay AID1329 (NMMLSC, 2008).
The source made the active and inactive calls. How the calls were made is not given here.

The compounds below were run against Induced myeloid leukemia cell differentiation protein Mcl-1 (Homo sapiens) (UniProt Q07820) (assay: modulators of Bim peptide binding to Mcl-1, dose response, biochemical, bead-based flow cytometry, multiplexed, human (AID 1329)). Settings: Bim peptide-Mcl-1 binding, MCF.
Sequence of Induced myeloid leukemia cell differentiation protein Mcl-1 (Homo sapiens) (Q07820 whole entry, looked up): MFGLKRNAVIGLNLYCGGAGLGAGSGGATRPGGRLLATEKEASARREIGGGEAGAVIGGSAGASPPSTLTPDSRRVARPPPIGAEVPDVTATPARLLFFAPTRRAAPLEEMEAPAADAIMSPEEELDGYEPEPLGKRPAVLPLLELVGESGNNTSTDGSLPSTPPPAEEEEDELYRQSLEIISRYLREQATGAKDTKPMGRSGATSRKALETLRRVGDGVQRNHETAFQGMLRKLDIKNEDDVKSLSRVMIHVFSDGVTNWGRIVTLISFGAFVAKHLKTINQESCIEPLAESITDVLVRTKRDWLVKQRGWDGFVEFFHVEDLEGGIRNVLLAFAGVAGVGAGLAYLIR
With `O=C1CCc2cc(S(=O)(=O)NCCCC(=O)N3CCN(Cc4ccc5c(c4)OCO5)CC3)ccc2N1` the percent span was “inactive”. With `CN1CCN(c2ccc(N)cc2)CC1` the percent span was “inactive”. For `COc1cc(NC(=S)NCCCO)c(OC)cc1Cl`, the percent span was “inactive”. In the case of `COc1ccc(CN(CC(=O)NC2CCCC2)C(=O)CCC(=O)Nc2cc(C)on2)cc1`, the percent span is reported as “inactive”. In the case of `CC(NCc1ccc(-c2ccccc2)cc1)C(O)c1ccccc1` (configuration not stated), the percent span is reported as “inactive”. In the case of `Cc1cc(-c2csc(N)n2)c(C)n1C`, the percent span is reported as “inactive”. `COc1ccc(CC(=O)Nc2ccc(C(=O)Nc3nccs3)cc2)cc1OC` was tested, and the percent span was “inactive”. In the case of `Cc1cc(C)cc(NS(=O)(=O)c2ccc3c(c2)c(=O)n(C)c(=O)n3C)c1`, the percent span is reported as “inactive”. In the case of `O=C(NNC(=O)C12CC3CC(CC(C3)C1)C2)c1ccco1`, the percent span is reported as “inactive”. `CNC(=S)N(Cc1cccs1)Cc1cc2ccc(OC)cc2[nH]c1=O` was tested, and the percent span was “inactive”. In the case of `Cc1ccc(/C=C/C(=O)c2ccccc(=O)c2O)cc1C`, the percent span is reported as “inactive”. For `Cc1ccc(C)c(/C=C/C(=O)c2ccccc(=O)c2O)c1`, the percent span was “inactive”. With `Cc1ccc(-c2cc(-c3ccc(F)cc3)nc(N)c2C#N)o1` the percent span was “inactive”. For `COC(=O)Cc1ccc(NC(=S)N2CCN(c3cccc(O)c3)CC2)cc1`, the percent span was “inactive”. For `Cc1ccc(C)c(N2CCN(C(=S)Nc3ccc4nc(N5CCN(C)CC5)cc(C)c4c3)CC2)c1`, the percent span was “inactive”. In the case of `CN=c1scc(C)n1/N=C/c1ccc(O)c(O)c1O`, the percent span is reported as “inactive”. `O=C(O)C1=C[C@H](C2CC2)C[C@H](OCCCCO)O1` was tested, and the percent span was “inactive”. In the case of `CCN(CC)c1ccc(-c2nn3c(-c4ccccc4OC)nnc3s2)cc1`, the percent span is reported as “inactive”. In the case of `O=C(CCl)Nc1cccc2ncccc12`, the percent span is reported as “inactive”. With `CN(C(=O)NC1CCCCC1)c1ccccc1` the percent span was “inactive”. In the case of `COc1ccc(CC(=O)Nc2ccccc2Oc2ccccc2)cc1`, the percent span is reported as “inactive”. `O=C(NCCN1CCOCC1)c1cc(Cl)ccc1[N+](=O)[O-]` was tested, and the percent span was “inactive”. With `CCN1CCN(c2cc(C)c3cc(NC(=S)N4CCCCC4)ccc3n2)CC1` the percent span was “inactive”. `Cc1ccc(-c2nc3c(c(=O)[nH]c(=O)n3Cc3ccccc3)n2C)o1` was tested, and the percent span was “inactive”. In the case of `Clc1nssc1=Nc1ccccc1`, the percent span is reported as “inactive”. In the case of `COc1ccc(NC(=O)Cc2c(F)cccc2Cl)c(OC)c1`, the percent span is reported as “inactive”. For `N#CC(C#N)=C1C=CC=CN1/C(=C\c1ccco1)C(=O)c1ccccc1`, the percent span was “inactive”. For `C1=CC2c3ccccc3NC(c3ccncc3)C2C1` (configuration not stated), the percent span was “inactive”. In the case of `CCOC(=O)/C(=C\c1cccc(O)c1)c1nc2sc(C)c(C)c2c(=O)[nH]1`, the percent span is reported as “inactive”. For `CCOC(=O)c1cccc(Nc2ncnc3ccccc23)c1`, the percent span was “inactive”. In the case of `CC(C)(C)C(=O)NC(NC(=S)Nc1ccc(S(N)(=O)=O)cc1)C(Cl)(Cl)Cl` (configuration not stated), the percent span is reported as “inactive”. With `Cc1cccc(N2CCN(C(=S)Nc3ccc4nc(N5CCN(C)CC5)cc(C)c4c3)CC2)c1C` the percent span was “inactive”. `Cc1cc(C)nc(SCc2cc(=O)c(OC(=O)c3cccc([N+](=O)[O-])c3)co2)n1` was tested, and the percent span was “inactive”. With `COc1ccc(OC)c(Nc2ccc(C(=O)O)cc2[N+](=O)[O-])c1` the percent span was “inactive”. In the case of `O=C(COc1ccccc1)Nc1ccc2c(c1)Cc1cc(NC(=O)COc3ccccc3)ccc1-2`, the percent span is reported as “inactive”. With `Cn1cccc1CC(=O)N/N=C\c1ccccc1` the percent span was “inactive”. With `CCN(CC)c1ccc(NC(=O)COc2ccccc2C#N)cc1S(=O)(=O)Nc1ccccc1OC` the percent span was “inactive”. In the case of `CCOC(=O)c1nc(Nc2ccc(Nc3ccccc3)cc2)c2ccccc2n1`, the percent span is reported as “inactive”. In the case of `CC(C)Cc1cc(-c2ccco2)c(C#N)c(N)n1`, the percent span is reported as “inactive”. With `NC(=O)c1c(N)sc2c1CCCCC2` the percent span was “inactive”. In the case of `O=C(Nc1cccc(Cl)c1)Nc1ccnc(-c2cccnc2)n1`, the percent span is reported as “inactive”. With `O=[N+]([O-])c1c(NCCO)cc(Sc2nc3ccccc3s2)c2nonc12` the percent span was “inactive”. `Cc1c(NC2=C(Cl)C(=O)N(c3ccccc3Cl)C2=O)c(=O)n(-c2ccccc2)n1C` was tested, and the percent span was “inactive”. For `Cc1c(N2C(=O)c3ccc4c5c(ccc(c35)C2=O)CC4)c(=O)n(-c2ccccc2)n1C`, the percent span was “inactive”. With `Cc1cc(-c2csc(N)n2)c(C)n1CCC(C)C` the percent span was “inactive”. With `CCc1cccc(NC(=O)COc2ccccc2)c1` the percent span was “inactive”. With `O=C(Nc1ccncc1)c1cc2ccccc2o1` the percent span was “inactive”. With `O=[N+]([O-])c1ccc2[nH]nc(-c3ccccc3)c2c1` the percent span was “inactive”. With `S=C1NC2=C(CCC/C2=C\c2ccccc2)C(c2ccccc2)N1` (configuration not stated) the percent span was “inactive”. In the case of `Nc1ccc(-c2cn3cccnc3n2)cc1`, the percent span is reported as “inactive”. In the case of `CCN1CCN(c2ccc(NC(=O)c3ccc4c(c3)[nH]c(=O)n4Cc3ccc(OC)cc3)cc2)CC1`, the percent span is reported as “inactive”. For `Cc1[nH]nc(SCC(=O)NCc2ccc(F)cc2)c1[N+](=O)[O-]`, the percent span was “inactive”. For `O=C(CSc1nc2ccsc2c(=O)n1Cc1ccc(C(=O)O)cc1)NCC1CCCO1` (configuration not stated), the percent span was “inactive”. For `CCc1nnc(NC(=O)CSc2nnc(COc3ccc(C)cc3)n2-c2ccccc2)s1`, the percent span was “inactive”. `CN(C)C(=O)N1CCC(C(=O)NC2CCCCCCC2)CC1` was tested, and the percent span was “inactive”. With `Cc1cc(C)c2nc3nc(C)cc(C)c3c(N)c2c1` the percent span was “inactive”. With `O=C(Nc1nccs1)c1ccc(COc2ccc(F)cc2)o1` the percent span was “inactive”. With `CCCn1c(SCC(=O)Nc2ccccc2-c2ccccc2)nnc1-c1ccoc1C` the percent span was “inactive”. `CNC(=S)N/N=C/C1=CCC2CC1C2(C)C` (configuration not stated) was tested, and the percent span was “inactive”. For `CCc1cccc(CC)c1NC(=S)N1CCn2cccc2C1c1cccnc1` (configuration not stated), the percent span was “inactive”. In the case of `COc1ccc(C)cc1Nc1ccc(C(=O)O)cc1[N+](=O)[O-]`, the percent span is reported as “inactive”. For `CCC(=O)OCCNc1cc(Sc2nc3ccccc3s2)c2nonc2c1[N+](=O)[O-]`, the percent span was “inactive”. `CCOc1ccc(N2C(=O)C(Cl)=C(Nc3ccccc3O)C2=O)cc1` was tested, and the percent span was “inactive”. For `Cc1onc(-c2ccccc2Cl)c1C(=O)Nc1nn[nH]n1`, the percent span was “inactive”. `Cc1ccc(NN2C(=O)C=CC2=O)cc1` was tested, and the percent span was “inactive”. In the case of `Cc1cc(C)nc(/N=C(\N)N2CCc3ccccc32)n1`, the percent span is reported as “inactive”. With `CC(=O)Nc1ccc(NC2=C(Cl)C(=O)c3ccccc3C2=O)cc1` the percent span was “inactive”. For `Cc1ccc2cc(C)c(Sc3nnnn3-c3ccccc3)nc2c1`, the percent span was “inactive”. For `c1cncc(-c2nnc3n2N=C(c2cccs2)CS3)c1`, the percent span was “inactive”. `Cc1ccccc1-n1c(SCc2cccc(F)c2)nc2[nH]ncc2c1=O` was tested, and the percent span was “inactive”. In the case of `COc1ccc(C(=O)Nc2ccc(C(=O)OCC(=O)c3cccc4ccccc34)cc2)cc1`, the percent span is reported as “inactive”. With `FC(F)(F)c1ccc2c(c1)C1C=CCC1C(c1ccncc1)N2` (configuration not stated) the percent span was “inactive”. For `COc1ccc(N2C(=O)/C(=C/c3cccs3)NC2=S)cc1`, the percent span was “inactive”. With `Cc1ccc(C(=O)C(C(=O)/C=C/c2ccccc2)=C2SCCCS2)cc1` the percent span was “inactive”. For `O=C(CSc1nnc(-c2ccco2)n1Cc1ccccc1)c1ccccc1`, the percent span was “inactive”. With `COc1ccc2c3c(cccc13)N(C)N=C2C` the percent span was “inactive”. For `COc1cc(/C=C2\SC(=S)NC2=O)ccc1OS(=O)(=O)c1ccccc1`, the percent span was “inactive”.
